Patent EP2518139A1, “Use of indirubin derivatives for producing pluripotent stem cells” (Universitätsklinikum Jena, priority 2011, dated 2012)
“Also recorded” adds a separate entry of the source.

How the values were obtained:
[1] = system: Smad1/5/8; assay: Immunoblot of p- and pan-Smad1/5/8 in HFF; assay type: cell-based, human; conditions: BMP2 (100ng/mL), 24h
Experimental: (§1) Cell culture: HeLa and C2C12 were cultured in DMEM containing 10% FCS and 1 % PS. HFF was cultured in DMEM containing 15% FCS and 1 %PS. NIH 3T3 was cultured in DMEM containing 10% NCS and 1% PS. The cells were maintained unter 5% CO2 at 37°C in a humidified atmosphere. After 24h preincuabtion in serum-free medium, the cells were treated with various compounds and proteins as indicated in context. Transfection of siRNA oligonuleotide against Smurf1 was reported by Zhu et al (Zhu et al., nature 2006) and synthesized by riboxx and performed using riboxx®FECT reagent according to the manufacturer's instructions. 24h after transfection, the cells were treated with BMP (100ng/mL) and Compound as indicated before lysis.
(§2) Western blot:: Cell extracts were homogenized in Urea-Lysis buffer (1mM EDTA,0.5% Triton X-100), 5mM NaF, 6M Urea, 1mM Na3VO4, 10µg/mL Pepstatin, 100µM PMSF and 3µg/mL Aprotinin in PBS). Enhanced chemiluminescence (ECL) Western blot analysis was performed. 20-40µg of total protein was resolved on 10% SDS-PAGE gels and immunoblotted with specific antibodies. Primary antibodies were incubated at a 1:1,000 dilution in TBS (pH 7.5) with 0.1% Tween-20 and 5% BSA/nonfat milk with gentle agitation overnight at 4°C. The proper secondary antibodies were incubated in TBS (pH 7.5) with 5% BSA/nonfat milk and 0.1 % Tween-20 at a 1:5,000 dilution for 1 h at room temperature. […]

[2] = system: Smad1/5/8; assay: Immunoblot of p- and pan-Smad1/5/8 in C2C12; assay type: cell-based, mouse; conditions: C2C12, BMP2 (100ng/mL), 24h, E738 0,5µM, 1µM and 5µM
Experimental: as §1, §2

[3] = system: Smad1/5/8; assay: Immunoblot of p- and pan-Smad1/5/8 in NIH 3T3; assay type: cell-based, mouse; conditions: NIH3T3, BMP2 (100ng/mL), 24h
Experimental: as §1, §2

[4] = system: Smad1/5/8; assay: Immunostaining of pan-Smad1/5/8 in C2C12; assay type: cell-based, mouse; conditions: C2C12, BMP2 (100ng/mL), 12h
Experimental: Immunostaining: The serum-depleted C2C12 cells were coinbubated with BMP2 (100ng/mL) and E738 at various concentration as indicated for 12h. Cells were fixed in 4% PFA and immunostained with Smad1/5/8 antibody (1:100) and DAPI as described previously.
To access the generality of the E738 effect on BMP/Smad, we treated C2C12, HFF and NIH 3T3 with various concentrations of E738 and probed cell extracts with p- and pan-Smad1/5/8 antibodies. […] In addition, E738 at 0.5µM concentration is already sufficient to reduce Smad1/5/8 in HFF and NIH3T3 implicating that fibroblast might be more sensitive to the IRDs treatment.

[5] = system: BMP- and TGFß-relative R-Smads; assay: Immunoblot of BMP- and TGFß-relative R-Smads in HeLa cells (TGFß or FCS stimulation); assay type: cell-based, human
[6] = system: ß-Catenin; assay: Immunoblot of non-phosphorylation-ß-Catenin in HeLa cells; assay type: cell-based, human; conditions: 1 h, BMP2 (100ng/mL), already from 0.1µM
Experimental: Western blot:: Cell extracts were homogenized in Urea-Lysis buffer (1mM EDTA,0.5% Triton X-100), 5mM NaF, 6M Urea, 1mM Na3VO4, 10µg/mL Pepstatin, 100µM PMSF and 3µg/mL Aprotinin in PBS). Enhanced chemiluminescence (ECL) Western blot analysis was performed. 20-40µg of total protein was resolved on 10% SDS-PAGE gels and immunoblotted with specific antibodies. Primary antibodies were incubated at a 1:1,000 dilution in TBS (pH 7.5) with 0.1% Tween-20 and 5% BSA/nonfat milk with gentle agitation overnight at 4°C. The proper secondary antibodies were incubated in TBS (pH 7.5) with 5% BSA/nonfat milk and 0.1 % Tween-20 at a 1:5,000 dilution for 1 h at room temperature.
To assess the effect of E738 on Wnt and Stat3 pathway in mammalian cellular context, HeLa cells were treated with E738 at increasing concentrations for 1 h. Here E804 was used as reference because of its well-known inhibition of Stat3 and Wnt. The antibodies of p-Stat3 and non-phosphorylation-ß-Catenin (NP-ß-Catenin, Ser33/37/Thr41), which can provide a convenient positive band if GSK3B is inhibited, were recruited to substantiated our in vitro results. […] With the stimulation of FCS, we also observed the similar regulation on Stat3 and MAPKs pathways depicted in Fig. 8.

[7] = system: tumor cells; assay: MTT assay, tumor cells; assay type: cell-based; conditions: various cancer cell lines, read-out: IC50-values, tumor cells growth
[8] = system: healthy cell lines; assay: MTT assay, healthy cell lines; assay type: cell-based; conditions: non-cancer cell lines
[9] = system: HeLa cells; assay: Growth inhibition of HeLa cells, BMP2 versus FCS; assay type: cell-based, human
[10] = system: Hek293T cells; assay: (iPS)-Colony formation and EMT in Hek293T; assay type: cell-based, human
Experimental: (§3) Cell culture: HeLa and Hek293T were cultured in DMEM (PAA) containing 10% FCS (PAA) and 1% PS (PAA). HFF (human foreskin fibroblasts) were cultured in DMEM containing 15% FCS and 1%PS. Mouse embryonic fibroblasts were cultured in DMEM containing 10% NCS (LifeTechnologies) and 1% PS. The cells were maintained under 5% CO2 at 37°C in a humidified atmosphere. The cells were treated with various compounds as indicated in context. The images were taken at indicated time points using a Keyence digital-microskop BZ-800.
(iPS)-Colony formation and spontaneous differentiation in HEK: 10^5 cells/well Hek 293T were seeded in a 12-well plate in 10% FCS with 1mL/well). Next day, the cells were treated with E738 (8µM). […] Afterwards, the cells were incubated further in the presence of 10% FCS and the medium was refreshed every 3 days. The spontaneous differentiation occurred after 10 days incubation.

[11] = system: HFF; assay: iPS-Colony formation and Alkaline phosphatases staining in HFF; assay type: cell-based, human; conditions: E738 (0.5µM) 8 days, Alkaline phosphatases staining after 14 days E738 (1µM)
Experimental: as §3
iPS-Colony formation and Alkaline phosphatases staining in HFF: 10^5 cells/well HFF at passage 4 were seeded in a 12-well plate in 15% FCS. Next day, the cells were treated with indicated concentrations of E738 without change of medium for indicated times. After the appearance of morphologic transition and stem cell like colony formation, alkaline phosphatase staining was performed using StemTAG Alkaline phosphatase staining kit (Biocat, Germany) according to the manufacturers protocol.

[12] = system: Sox2; assay: Immunoblot of Sox2 expression in HFF cells; assay type: cell-based, human; conditions: 2h
[13] = system: Nanog; assay: Nanog overexpression in Nanog-GFP Hek293T cells; assay type: cell-based, human; conditions: 1µM E738, 24h

**Q.** What does the source list for `COc1ccc2c(c1)C(=C1Nc3ccccc3C1=NOCC(O)CO)C(=O)N2` (stereo not drawn) [E738]?
**A.** concentration sufficient to reduce Smad1/5/8 [1]: 0.5 µM; p- and pan-Smad1/5/8 ([1]; E738 0,5µM, 1µM and 5µM): decline of both; p- and pan-Smad1/5/8 [2]: decline of both; concentration sufficient to reduce Smad1/5/8 [3]: 0.5 µM; p- and pan-Smad1/5/8 ([3]; E738 0,5µM, 1µM and 5µM): decline of both; pan Smad1/5/8 by immunostaining [4]: depletion of pan Smad1/5/8 as early as 12h treatment; BMP- and TGFß-relative R-Smads ([5]; BMP2 (100ng/mL) or TGFß (20ng/mL), 4h treatment): influenced on both BMP- and TGFß-relative R-Smads in concentration dependent manner; P- and pan-Smads (R-Smads) ([5]; TGFß (20ng/mL), 24h, E738 (1µM), Bio (5µM), DM (1µM), Repsox (10µM)): abolishment of both BMP- and TGFß-relative R-Smads; non-phosphorylation-ß-Catenin (NP-ß-Catenin, Ser33/37/Thr41) [6]: highly stabilized ß-Catenin; IC50 [7]: < 1000 nM; toxicities towards healthy cell lines, lower than towards tumor cells [8]: 20 fold; more efficient inhibition of HeLa cells growth in response to BMP2 than FCS [9]: above 10 fold; cell mobility (EMT) and cell dedifferentiation ([10]; Hek293T, 4 days treatment): enhances cell mobility (EMT) and induces cell dedifferentiation; iPS-like (embryonic stem cell-like) colony formation ([10]; Hek 293T, E738 (8µM) 24h, floating cells washed and replated in 10% FCS for 3 days): embryonic stem cell-like colony appeared after 3 days; also recorded: iPS-like colonies were observed; EMT ([10]; Hek 293T, E738 (8µM), 24h, 10% FCS): a clear EMT could be observed; formation of ESC-like colony [11]: induces the formation of ESC-like colony from HFF; expression of Sox2 [12]: stimulates expression of Sox2; Nanog-overexpression [13]: promotes Nanog-overexpression
